We go through 17 compounds from patent US7270966B2, “Human pyrimidine receptor” (Euroscreen SA, priority 1995, dated 2007).

The target in assay [1] is T1, human P2Y4 receptor (Homo sapiens, UniProt P51582).
T1 construct: expressed in transfected cells; host or cells: 1321N1 human astrocytoma cells, G418-selected clone, pcDNA3-P2Y4
Nature of the assay: InsP3 accumulation in 1321N1 cells expressing the human P2Y4 receptor. The assay is classed as cell-based. The following applies: for agonist effect on InsP3 at 30 s: 30 s incubation, 100 μM; for effect per se on InsP3 production: agonist alone; for functional response (IP3 accumulation) in pool of G418-resistant clones: pool of transfected 1321N1 clones. As for the experimental part:
Cells were transfected with the recombinant pcDNA3 plasmid (pcDNA3-P2Y4) using the calcium phosphate precipitation method as described (16). 1321N1 cells were incubated for 6 hours at 37° C. in the presence of pcDNA3 vector alone or vector containing the P2Y4 receptor coding sequence, then washed and incubated in culture medium (10% FCS, 100 U/ml penicillin, 100 μ/ml streptomycin and 2.5 μg/ml amphotericin B in Dulbecco's modified Eagle's medium (DMEM)). The selection with G418 (400 μg/ml) was started two days after transfection. From the pool of transfected 1321N1 cells, individual clones were isolated by limiting dilution with the aim of selecting clones with high IP stimulation factors in response to nucleotides. The different clones were maintained in a medium containing 400 μg/ml G418.
(§1) 1321N1 cells were labeled for 24 hours with 10 μCi/ml [^3H] inositol in inositol-free DMEM (Dulbecco's modified Eagle's medium) medium containing 5% fetal calf serum, 100 U/ml penicillin, 100 μg/ml streptomycin, 2.5 μg/ml amphotericin B and 400 μg/ml G418. Cells were washed twice with KRH (Krebs-Ringer Hepes) buffer of the following composition: (124 mM NaCl, 5 mM KCl, 1.25 mM MgSC4, 1.45 mM CaCl2, 25 mM Hepes (pH 7.4) and 8 mM glucose) and incubated in this medium for 30 min The agonists were added in the presence of LiCl (10 mM) and the incubation was stopped after 30 s, 5 min or 20 min by the addition of an ice-cold 3% perchloric acid solution. For the time course study, LiCl (10 mM) was added 5 min before the agonists and the incubation was stopped at different times. When tested, pertussis toxin (20 ng/ml) was added for 18 h during the labeling period time and during the stimulation by the agonist. Inositol phosphates were extracted and InsP3 was isolated by chromatography on Dowex column as described previously (17).

The subject of assay [2] is muscarinic receptors endogenously expressed in the 1321N1 cells. The assay can be described thus: Action of carbachol (InsP3) via muscarinic receptors endogenously expressed in 1321N1 cells. The assay is classed as cell-based, human. The following applies: cells transfected with P2Y4-pcDNA3 or vector alone. How it is done:
as §1
The maximal effect of ATP observed after a 20 min incubation represented about 27±9% of that of UTP (mean±S.D. of ten experiments). […] The ATP concentration-inhibition curves were shifted to the right when the UTP concentration was increased, indicating the competitive nature of this inhibitory effect (panels A and B). On the other hand, at lower concentrations (30-300 μM), ATP enhanced the response to UTP by 29% (range 12-47%, mean of four experiments) (panel B). […] This observation was reproduced with cells transfected with the recombinant P2Y4-pcDNA3 plasmid or with the vector alone and was also obtained with AMP and adenosine (data not shown).

The target in assay [3] is T1, human P2Y4 receptor. The assay can be described thus: Radioligand binding of [α32P]UTP to membranes of P2Y4-transfected 1321N1 clones. The following applies: clones 2, 11 and 21; 0.5 nM radioligand; data not shown. How it is done:
Binding assays of [α^32P] UTP to cell membranes were carried out in Tris-HCl (50 mM, pH 7.5), EDTA 1 mM in a final volume of 0.5 ml, containing 25-50 μg of protein and 0.5 nM of radioligand (27). The assays were conducted at 30° C. for 5 min. Incubations were stopped by the addition of 4 ml of ice-cold Tris-HCl (50 mM, pH 7.5) and rapid filtration through Whatman GF/B filters under reduced pressure. The filters were then washed three times with 2 ml of the same ice-cold Tris-HCl buffer. Radioactivity was quantified by liquid scintillation counting, after an overnight incubation of the filters in liquid scintillation mixture.

Where [4] appears, read: 20 min incubation, 10 mM LiCl, read-out: EC50 InsP3 accumulation, full concentration-action curves.
Setting [5] is: antagonist 100 μM, UTP 2 and 10 μM, 20 min.
Where [6] appears, read: clone 2, 20 min incubation, 10 mM LiCl, read-out: EC50 InsP3 production.
Where [7] appears, read: clone 11, 20 min incubation, 10 mM LiCl, read-out: EC50 InsP3 production.
Setting [8] is: clone 21, 20 min incubation, 10 mM LiCl, read-out: EC50 InsP3 production.

Where two headings read alike, the source gives them in different places. A value given as a limit tells only on which side of the number the result lay.

T1 sequence (P51582 whole entry): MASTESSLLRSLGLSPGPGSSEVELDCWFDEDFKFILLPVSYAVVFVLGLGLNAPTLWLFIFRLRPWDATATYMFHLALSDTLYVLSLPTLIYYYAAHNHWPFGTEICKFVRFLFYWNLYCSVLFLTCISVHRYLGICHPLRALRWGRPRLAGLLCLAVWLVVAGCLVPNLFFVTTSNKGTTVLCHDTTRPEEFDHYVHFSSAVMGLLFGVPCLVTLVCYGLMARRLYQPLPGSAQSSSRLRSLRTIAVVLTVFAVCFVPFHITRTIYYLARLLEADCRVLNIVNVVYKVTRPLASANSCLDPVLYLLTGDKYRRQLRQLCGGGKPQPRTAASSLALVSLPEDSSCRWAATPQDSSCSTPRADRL

In the case of `O=c1ccn([C@H]2C[C@H](O)[C@@H](COP(=O)(O)OP(=O)(O)OP(=O)(O)O)O2)c(=O)[nH]1` [dUTP], the “agonist effect on InsP3 at 30 s” value at human P2Y4 receptor [1] is recorded as “barely or not active”. Besides, the EC50 at human P2Y4 receptor [1] (setting [4]) was found to be 20 ± 2.3 µM.

Take `Nc1ncnc2c1ncn2[C@@H]1O[C@H](COP(=O)(O)OP(=O)(O)OP(O)(O)=S)[C@@H](O)[C@H]1O` [ATPyS]: the “effect per se on InsP3 production” value on human P2Y4 receptor [1] (data not shown) is listed as “without any effect”.

With `O=c1[nH]c(=O)n([C@@H]2O[C@H](COP(=O)(O)OP(=O)(O)OP(=O)(O)O)[C@@H](O)[C@H]2O)cc1Br` [5BrUTP], at human P2Y4 receptor [1], the “agonist effect on InsP3 at 30 s” value is recorded as “barely or not active”. Besides, the EC50 on human P2Y4 receptor [1] (setting [4]) came to 27.1 ± 1.9 µM.

As for `Cc1nc(N=Nc2ccc(S(=O)(=O)O)cc2S(=O)(=O)O)c(COP(=O)(O)O)c(C=O)c1O` [PPADS], the “inhibition of the UTP response by antagonist” value (“inhibition … by antagonist” for short) against human P2Y4 receptor [1] (setting [5]) is reported as 73±14%. The IC50 on human P2Y4 receptor [1] (data not shown, read-out: IC50 for inhibition of the UTP response) was approximately 15 µM.

`O=c1ccn([C@@H]2O[C@H](COP(=O)(O)OP(=O)(O)OP(=O)(O)O)[C@@H](O)[C@H]2O)c(=O)[nH]1` [UTP, uridine triphosphate]: the EC50 was 12.2 ± 4.5 µM on human P2Y4 receptor [1] (20 min, 100 μM PPADS, read-out: EC50 value for UTP in the presence of PPADS); 3.3 ± 0.6 µM at human P2Y4 receptor [1] (20 min, no PPADS, read-out: EC50 value for UTP in the absence of PPADS); 2.5 ± 0.6 µM at human P2Y4 receptor [1] (setting [4]); 0.3 ± 0.1 µM at human P2Y4 receptor [1] (setting [6]); 2.4 ± 0.1 µM on human P2Y4 receptor [1] (setting [7]); 0.3 ± 0.1 µM at human P2Y4 receptor [1] (setting [8]). Besides, the “potency of UTP relative to UDP” value at human P2Y4 receptor [1] (clone 11, 20 min incubation) amounted to 10 fold. For the same compound, the “functional response (IP3 accumulation) in pool of G418-resistant clones” value on human P2Y4 receptor [1] was “agonists”.

On to `Nc1ncnc2c1ncn2[C@@H]1O[C@H](COP(=O)(O)OP(=O)(O)OP(=O)(O)O)[C@@H](O)[C@H]1O` [ATP], for which, in assay [2], the “effect on the action of carbachol” value is “increased”. Besides, on human P2Y4 receptor [1], the “agonist effect on InsP3 at 30 s” value is given as “no effect” and the “functional response (IP3 accumulation) in pool of G418-resistant clones” value is “agonists”. Besides, the EC50 on human P2Y4 receptor [1] (setting [4]) was approximately 43 µM. Besides, on human P2Y4 receptor [1] (20 min incubation, % of UTP maximal effect), the “maximal effect relative to that of UTP” value is reported as “about 27±9%”. Moreover, the “enhancement of the response to UTP” value at human P2Y4 receptor [1] (ATP 30-300 μM, 20 min) is 29%. In addition, on human P2Y4 receptor [1] (UTP 10 μM, ATP 2 mM, 30 s), the “antagonism of the response to UTP” value is given as “fully antagonized”. Moreover, at human P2Y4 receptor [1] (UTP 10 μM, ATP 2 mM, 20 min), the “inhibition of the UTP effect” value amounted to 62±11%. The “ATP concentration able to inhibit the effect of UTP” value on human P2Y4 receptor [1] (both at 30 s and 20 min) was not below 500 µM.

Regarding `O=c1ccn(C2OC(CO[32P](=O)(O)OP(=O)(O)OP(=O)(O)O)C(O)C2O)c(=O)[nH]1` (stereo not drawn) [[α^32P] UTP], the “specific binding versus cells transfected with the vector alone” value at human P2Y4 receptor [3] is reported as “no increase in specific binding”.

On to `Cc1ccc(C(=O)Nc2ccc(S(=O)(=O)O)c3cc(S(=O)(=O)O)cc(S(=O)(=O)O)c23)cc1NC(=O)c1cccc(NC(=O)Nc2cccc(C(=O)Nc3cc(C(=O)Nc4ccc(S(=O)(=O)O)c5cc(S(=O)(=O)O)cc(S(=O)(=O)O)c45)ccc3C)c2)c1` [suramin], for which the “inhibition … by antagonist” value against human P2Y4 receptor [1] (setting [5]) is “inactive”.

Take `Nc1ncnc2c1ncn2[C@@H]1O[C@H](COP(=O)(O)OP(=O)(O)O)[C@@H](O)[C@H]1O` [ADP]: the “effect on the action of carbachol” value in assay [2] is listed as “increased”. Moreover, the “inhibition of the action of UTP (qualitative)” value on human P2Y4 receptor [1] is “did not inhibit”. The “stimulation by UTP in presence of ADP, relative to UTP alone” value at human P2Y4 receptor [1] (ADP 100 μM, UTP 10 μM) is given as 158±15%. The “effect per se on InsP3 production” value on human P2Y4 receptor [1] (data not shown) is “almost no effect”.

In the case of `Nc1c(S(=O)(=O)O)cc(Nc2ccc(Nc3nc(Cl)nc(Nc4cccc(S(=O)(=O)O)c4)n3)c(S(=O)(=O)O)c2)c2c1C(=O)c1ccccc1C2=O` [RB-2, reactive blue 2], the “inhibition … by antagonist” value against human P2Y4 receptor [1] was found to be 33±5%.

Turning to `O=c1ccn([C@@H]2O[C@H](COP(=O)(O)OP(=O)(O)O)[C@@H](O)[C@H]2O)c(=O)[nH]1` [UDP], at human P2Y4 receptor [1], the “agonist effect on InsP3 at 30 s” value is given as “barely or not active”. Moreover, the EC50 at human P2Y4 receptor [1] (setting [4]) was 19.5 ± 3.9 µM; at human P2Y4 receptor [1] (setting [6]) it was 3.3 ± 0.6 µM; at human P2Y4 receptor [1] (setting [7]), 19.8 ± 4.8 µM; at human P2Y4 receptor [1] (setting [8]), 3.2 ± 0.8 µM.

Regarding `Nc1ncnc2c1ncn2[C@@H]1O[C@H](CO)[C@@H](O)[C@H]1O` [adenosine], the “effect on the action of carbachol” value in assay [2] is given as “increased”. Moreover, on human P2Y4 receptor [1] (data not shown), the “effect per se on InsP3 production” value is given as “without any effect”.

In the case of `O=c1ccn([C@@H]2O[C@H](COP(=O)(O)O)[C@@H](O)[C@H]2O)c(=O)[nH]1` [UMP], the “effect per se on InsP3 production” value at human P2Y4 receptor [1] (data not shown) is “without any effect”.

On to `O=c1[nH]cnc2c1ncn2[C@@H]1O[C@H](COP(=O)(O)OP(=O)(O)OP(=O)(O)O)[C@@H](O)[C@H]1O` [ITP], for which the “agonist effect on InsP3 at 30 s” value at human P2Y4 receptor [1] is listed as “barely or not active”. Besides, the EC50 at human P2Y4 receptor [1] (setting [4]) came to 32.8 ± 5.4 µM.

As to pertussis toxin, on human P2Y4 receptor [1] (20 ng/ml, 18 hours pretreatment, UTP 100 μM, 30 s), the “inhibition of the UTP response by pertussis toxin” value is 62±5%. In addition, the “effect of pertussis toxin on the UTP response” value at human P2Y4 receptor [1] (20 ng/ml, 18 hours pretreatment, UTP 100 μM, 5 min) was “no significant effect”; on human P2Y4 receptor [1] (20 ng/ml, 18 hours pretreatment, UTP 100 μM, 20 min) it was “no significant effect”.

As to `Nc1ncnc2c1ncn2[C@@H]1O[C@H](COP(=O)(O)O)[C@@H](O)[C@H]1O` [AMP], the “effect on the action of carbachol” value in assay [2] is “increased”. Also, at human P2Y4 receptor [1] (data not shown), the “effect per se on InsP3 production” value is “without any effect”.

As for `O=c1ccn([C@@H]2O[C@H](CO)[C@@H](O)[C@H]2O)c(=O)[nH]1` [uridine], the “effect per se on InsP3 production” value on human P2Y4 receptor [1] (data not shown) is listed as “without any effect”.
